# Results reported in US7884115B2, “Methods and compositions for the treatment of pain and other neurological conditions” (Allergan, Inc., priority 2004, dated 2011).
# Tests used:
# [1] = test system: allodynia induced by N-methyl-D-aspartate (NMDA); experiment: Mouse NMDA model of allodynia; format: in vivo; details: 3 mg/kg, 15 min before 200 ng NMDA IT, FIG. 2
# Method: In variants of this model, allodynia can be induced using 100 ng N-methyl-D-aspartate (NMDA) in DMSO intrathecally, or IP phenylephrine (PE) 100 ng/kg formulated in dH2O. In either model, the compounds are formulated in d-H2O and given in a volume of 1 ml/kg body weight for intraperitoneal (IP) dosing. Six mice per group are rendered allodynic by injection of one of the following agents: 300 ng/kg sulprostone in DMSO IP, 100 ng/kg phenylephrine (PE) in dH2O IP, or 100 ng NMDA in DMSO intrathecally (IT). Fifteen minutes before administration of the allodynia-inducing agents, the experimental mice are given 1 mg/kg NB-DNJ. Thirty (30) minutes following administration of NB-DNJ, the allodynic response is monitored as described by brushing the flank of each mouse with a paint brush. Six mice per group are given one of the following: given 100 μg/kg NB-DNJ, 300 μg/kg NB-DNJ, 1 mg/kg NB-DNJ, or 3 mg/kg 1-deoxynojirimycin. After 15 minutes the mice are rendered allodynic by injection of 200 ng NMDA in DMSO IT. Starting thirty (30) minutes following administration of NB-DNJ, the allodynic response of each mouse is monitored by brushing the flank of the mouse with a paint brush. Five to six mice per group are rendered allodynic by injection of one of the following: 300 ng/kg sulprostone IP, 100 ng/kg phenylephrine (PE) IP, or 100 ng NMDA intrathecally (IT). Fifteen minutes prior to the induction of allodynia, the mice are given D-glucaro-delta-lactam IP at […], or 1 mg/kg. PE or NMDA-treated mice are given 1 mg/kg D-glucaro-delta-lactam IP.
# [2] = test system: primary rat brain cortical neurons treated with kainate; experiment: Kainate-induced excitotoxicity in primary cortical neurons (LDH release); format: cell-based; details: cortical cell cultures; FIGS. 9A, 9B and 9C
# Method: (§1) Primary rat brain cortical neurons were cultured as follows. In brief, rat cerebral cortices were removed from brains of the 16 day-old-fetal rats. The neocortices were gently triturated and plated on 24 well plates (300,000 viable cells/cm2) in plating Modified Eagle's Medium (MEM) supplemented with 10% horse serum, 10% fetal calf serum and 2 mM L-glutamine. Cultures were maintained at 37 C in a humidified 5% CO2 atmosphere.
# (§2) After 4 days' growth (DIV 4), half of the medium was replaced by a medium identical to the plating medium but lacking calf serum. At DIV4, 10 μM 5-fluoro-2-deoxyuridine was included to each well to halt overgrowth of glia. Mixed cultures of neurons and glia were then fed at DIV7 and DIV11 with MEM plus 5% horse serum previously conditioned by growth with cortical astrocytes for 24 h.
# Excitotoxicity was induced in these cells by addition of 50 μM kainate or 20 μM N-methyl-D-aspartate plus 10 μM D-serine to each well.
# (§3) Under the experimental conditions used, i.e. after 6 hours addition of excitotoxic agent, 40% toxicity is generally observed and measured by determination of the amount of lactate dehydrogenase (LDH) released into the medium following membrane degradation. Such assay methods are well-known; a kit for conducting a homogeneous form of the LDH assay format is sold by Promega under the name CytoTox ONE® Homogenous Membrane Integrity Assay. Overall cell injury was assessed microscopically under phase-contrast optics or by measuring amount of LDH released into the bathing medium 24 hr after neurotoxic insults (see, e.g., Koh and Choi, J. NEUROSCI. METHODS 20: 83-90, 1987), hereby incorporated by reference herein.
# […] The final results are normalized optical density (OD) values (treated cells/untreated control cells), where a value of 1 represents 100% neuronal survival and a value of 0.6 represents 60% survival.
# [3] = test system: primary rat brain cortical neurons treated with NMDA plus D-serine; experiment: NMDA/serine-induced excitotoxicity in primary cortical neurons (LDH release); format: cell-based; details: NMDA/serine-treated cells, 3 h or 16 h preincubation; FIGS. 10A and 10B
# Method: as §1
# as §2, with “h. […]” for “h.”
# as §3, with “Such assay methods are well-known; a kit for conducting a homogeneous form of the LDH assay format is sold by Promega under the name CytoTox ONE® Homogenous Membrane Integrity Assay.” left out, “herein. […]” for “herein.”
# [4] = test system: allodynia induced by sulprostone; experiment: Mouse sulprostone model of allodynia; format: in vivo; details: up to 1 mg/kg, 15 min before sulprostone 300 ng/kg IP, FIG. 3
# Method: In this alternative model of chronic pain, allodynia can be induced in mice through intraperitoneal treatment of the animals with 300 ng/kg sulprostone (prostaglandin E2 receptor agonist) in 50% DMSO and in a volume of 5 μl. In this model, the pain response to stroking the flank with a paint brush is scored 8 times over a 35 minute period starting 15 minutes following spinal administration of sulprostone. Minami et al., 57 Pain 217-223 (1994), hereby incorporated by reference herein. Sulprostone treatment alone elicits a score of 12-13 on a 16-point scale.
# In either model, the compounds are formulated in d-H2O and given in a volume of 1 ml/kg body weight for intraperitoneal (IP) dosing.
# Six mice per group are rendered allodynic by injection of one of the following agents: 300 ng/kg sulprostone in DMSO IP, 100 ng/kg phenylephrine (PE) in dH2O IP, or 100 ng NMDA in DMSO intrathecally (IT). Fifteen minutes before administration of the allodynia-inducing agents, the experimental mice are given 1 mg/kg NB-DNJ. Thirty (30) minutes following administration of NB-DNJ, the allodynic response is monitored as described by brushing the flank of each mouse with a paint brush.
# Five to six mice per group are rendered allodynic by injection of 300 ng/kg sulprostone IP. Fifteen minutes before inducement of an allodynic response, experimental mice are given one of the following: 1 mg/kg, 300 μg/kg, and 100 μg/kg NB-DNJ; 1 mg/kg N-butyldeoxymannojirimycin; 1 mg/kg N-5-carboxy-1-deoxynojirimycin; 1 mg/kg N-dodecyldeoxynojirimycin; 1 mg/kg N-ethyl-1-deoxynojirimycin; 1 mg/kg, 300 μg/kg, and 30 μg/kg D-glucaro-delta-lactam; 1 mg/kg 4-O-a-D-glucopyranosylmoranoline; 1 mg/kg nojirimycin bisulfite; 1 mg/kg nojirimycin-1-sulfonic acid; 1 mg/kg N-(n-nonyl)deoxynojirimycin; 1 mg/kg N(7-oxadecyl)deoxynojirimycin; and 1 mg/kg N-(7-oxa-9,9,9-trifluorononyl)deoxynojirimycin. The DMSO vehicle and sulprostone alone are used as controls.
# Starting thirty (30) minutes following administration of NB-DNJ, the allodynic response of each mouse was monitored by brushing the flank of the mouse with a paint brush.
# Five to six mice per group are rendered allodynic by injection of one of the following: 300 ng/kg sulprostone IP, 100 ng/kg phenylephrine (PE) IP, or 100 ng NMDA intrathecally (IT). Fifteen minutes prior to the induction of allodynia, the mice are given D-glucaro-delta-lactam IP at […], or 1 mg/kg. PE or NMDA-treated mice are given 1 mg/kg D-glucaro-delta-lactam IP.
# [5] = test system: chronic pain; experiment: Mouse and rat models of chronic pain (summary statement); format: in vivo
smiles,measurement,setting,value
"OC[C@H]1NC[C@H](O)[C@@H](O)[C@@H]1O [DNJ, 1-deoxynojirimycin]",analgesic activity,[1],not analgesic
same,protection against kainate induced toxicity,[2],about 50%
same,neuroprotective effect,[3],no neuroprotective effect
"CCN1C[C@H](O)[C@@H](O)[C@H](O)[C@H]1CO [N-ethyldeoxynojirimycin, N-ethyl-1-deoxynojirimycin]",attenuation of the allodynic response (analgesic activity),[4],attenuate the allodynic response
"CCCCN1C[C@H](O)[C@@H](O)[C@@H](O)[C@H]1CO [NB-DGJ, N-butyldeoxygalactonojirimycin]",activity in models of chronic pain,[5],not to be active
